{"source": "patent US20260055364A1", "about": "“Methods for Improving Sperm Function and Fertilizing Ability for Assisted Reproduction Techniques” (Consejo Nacional de Investigaciones Cientificas y Técnicas …, priority 2022, published 2026)", "key": {"mouse sperm": {"test_system": "mouse sperm", "details": "cited from earlier work"}, "human sperm [1]": {"test_system": "human sperm", "assay": "Sperm motility analysis (CASA) of human sperm after ionophore and/or temperature treatment", "format": "cell-based", "details": "0.5 μM for 2 min before incubation at 40° C. for 30 min; FIG. 2A", "protocol": "Sperm Motility Analysis: Aliquots of 9.7 μl of sperm suspensions were placed on slides under 18 mm×18 mm coverslips, obtaining a preparation depth of 30 μm, and maintained at 37° C. using a temperature-controlled stage. Sperm motility parameters were evaluated using the Sperm Class Analyzer® system (SCA v.6.2.0.1., Microptic SL, Barcelona, Spain), acquiring 60 frames per second. At least 5 microscopic fields and 300 sperm were analyzed. The following parameters were assessed: curvilinear velocity (VCL, μm/s), straight line velocity (VSL, μm/s), average path velocity (VAP, μm/s), linearity ([…]), straightness (STR×100, %), wobble (WOB: VAP/VCL×100, a measure of sperm head side to side movement, %), amplitude of lateral head displacement (ALH, μm) and beat cross frequency (BCF, Hz). Sperm motility was measured and classified as follows: rapid progressive (VCL≥35 μm/s; STR≥80%), medium progressive (VCL≥15 μm/s; STR≥80%), in situ (VCL<15 μm/s; VAP≥5 μm/s) and immotile (VAP<5 μm/s). Percentages of total (rapid progressive+medium progressive+in situ) and progressive (rapid+medium progressive) motility were recorded. Drifting was set in 25 μm/s. Sperm were considered hyperactivated when presenting VCL≥150 μm/s, LIN<50% and ALH≥3.5 μm.\nSemen samples from healthy men were processed by density gradient centrifugation as stated in Example 1. […]"}, "human sperm [2]": {"test_system": "human sperm", "details": "high-concentration ionophore treatment and removal; cited from earlier work"}, "sperm": {"test_system": "sperm", "details": "cited from earlier work"}}}
{"molecule": "CNc1ccc2oc(C[C@H]3O[C@@]4(CC[C@H]3C)O[C@H]([C@H](C)C(=O)c3ccc[nH]3)[C@H](C)C[C@H]4C)nc2c1C(=O)O", "note": "[A23187]", "values": [{"measurement": "hyperactivation after removal of the ionophore", "setting": "mouse sperm; 10-20 μM for 10 min, then removal, Tateno et al", "value": "acquires HA"}, {"measurement": "sperm motility", "setting": "mouse sperm; 10-20 μM for 10 min, Tateno et al", "value": "immobilizes"}, {"measurement": "fertility of sperm from CatSper1−/−, Slo3−/− and Adcy10−/− knock-out lines", "setting": "mouse sperm; 10-20 μM for 10 min with posterior removal, Navarrete et al (2016)", "value": "overcomes infertility"}, {"measurement": "levels of HA compared to control", "setting": "human sperm [1]", "value": "higher levels of HA"}, {"measurement": "motility after ionophore treatment", "setting": "human sperm [2]", "value": "does not regain motility"}, {"measurement": "sperm HA", "setting": "sperm; 0.5 and 1 μM", "value": "provoked sperm HA without immobilization"}, {"measurement": "sperm motility", "setting": "sperm; 5-10 μM, in a few minutes", "value": "immobilized sperm"}, {"measurement": "intracellular Ca2+ concentrations", "setting": "sperm; 5-10 μM", "value": "substantially elevated"}]}
